Test results from patent US20080299076A1, “Compunds and compositions that cause non-apoptotic cell death and uses thereof” (priority 2006, published 2008).
pEC50: −log10 of the molar value.

Key:
Experiment in all cases: Response of tumor cell lines to erastin (dose-response)
Type in all cases: cell-based
[1] = tested on: SVR
Protocol: (§1) Given that oncogenic RAS activates at least four downstream pathways, analysis was performed to identify which downstream effects were necessary for erastin sensitivity. In certain embodiments, the invention provides that erastin inhibits growth and kills genuine tumor cells with RAS mutations. In other embodiments, the invention provides measures of the dose-response of 29 tumor cell lines to erastin, wherein there is at least 50% inhibition of viability in 18 of the cell lines (Table 4). Numerous sarcoma-derived tumor cell lines were sensitive to erastin, consistent with the fact that erastin was discovered in an engineered tumor cell line created from human fibroblasts.

[2] = tested on: LNCaP
Protocol: as §1

[3] = tested on: SJSA-1
Protocol: as §1

[4] = tested on: C-33A
Protocol: as §1

[5] = tested on: SW872
Protocol: as §1

[6] = tested on: HCT 116; conditions: HCT 116, colorectal carcinoma
Protocol: as §1

[7] = tested on: EWS502
Protocol: as §1

[8] = tested on: SK-N-MC
Protocol: as §1

[9] = tested on: HL-60
Protocol: as §1

[10] = tested on: SW982; conditions: SW982, synovial sarcoma
Protocol: as §1

[11] = tested on: U973
Protocol: as §1

[12] = tested on: A431NS; conditions: Epidermoid carcinoma
Protocol: as §1

[13] = tested on: TC71
Protocol: as §1

[14] = tested on: HeLa
Protocol: as §1

[15] = tested on: A549; conditions: A549, lung carcinoma
Protocol: as §1

[16] = tested on: MX2
Protocol: as §1

[17] = tested on: MES-SA
Protocol: as §1

[18] = tested on: SK-LMS-1
Protocol: as §1

[19] = tested on: TC32
Protocol: as §1

[20] = tested on: Hs51.T
Protocol: as §1

[21] = tested on: SK-UT
Protocol: as §1

[22] = tested on: U-2 OS
Protocol: as §1

[23] = tested on: Hs 925.T
Protocol: as §1

[24] = tested on: SK-ES-1
Protocol: as §1

`CCOc1ccccc1-n1c(C(C)N2CCN(C(=O)COc3ccc(Cl)cc3)CC2)nc2ccccc2c1=O` (centres unmarked) [erastin, 2-(1-{4-[2-(4-Chloro-phenoxy)-acetyl]-piperazin-1-yl}-ethyl)-3-(2-ethoxy-phenyl)-3H-quinazolin-4-one] was tested, and the pEC50 ([1]; Mus musculus) was 5.60, the Max % killing ([1]; Pancreatic carcinoma) was 20% and the pEC50 ([2]; Homo sapiens) was 5.22. The Max % killing ([2]; prostate carcinoma) was 32%, the pEC50 ([3]; Homo sapiens, SJSA-1) was 4.92 and the Max % killing ([3]; SJSA-1, Osteosarcoma) was 100%. The pEC50 ([4]; Homo sapiens) was 6.22, the Max % killing ([4]; cervical carcinoma) was 21% and the “Erastin Sensitivity (maximum percent killing, as fraction)” value ([5]; SW 872) was 0.00. For the same compound, the Max % killing ([5]; SW872, Liposarcoma) was 0%, the Max % killing [6] was 0% and the pEC50 ([7]; EWS502) was 5.00. The “Erastin Sensitivity (maximum percent killing, as fraction)” value ([7]; EWS502) was 0.42, the Max % killing ([7]; EWS502, Ewing sarcoma) was 42% and the pEC50 ([8]; Homo sapiens, SK-N-MC) was 5.00. The “Erastin Sensitivity (maximum percent killing, as fraction)” value ([8]; SK N MC) was 0.95, the Max % killing ([8]; SK-N-MC, Neuroepithelioma) was 95% and the “Erastin Sensitivity (maximum percent killing, as fraction)” value ([9]; HL 60) was 0.00. The Max % killing ([9]; HL-60, acute promyelocytic leukemia) was 0%, the Max % killing [10] was 0% and the “Erastin Sensitivity (maximum percent killing, as fraction)” value ([11]; U937) was 0.73. It also gave a Max % killing ([11]; U973, Acute myelogenous leukemia) of 73%, a pEC50 ([11]; U-973, U973) of 5.00 and a Max % killing [12] of 0%. For the same compound, the “Erastin Sensitivity (maximum percent killing, as fraction)” value ([13]; TC 71) was 0.92, the Max % killing ([13]; TC71, Ewing sarcoma) was 92% and the pEC50 ([13]; TC-71, TC71) was 5.00. For the same compound, the Max % killing ([14]; Cervical carcinoma) was 94%, the pEC50 ([14]; Homo sapiens) was 6.22 and the Max % killing [15] was 0%. It also gave a pEC50 ([16]; MX2) of 4.74, a Max % killing ([16]; MX2, Uterine Sarcoma) of 71% and a pEC50 ([17]; Homo sapiens) of 5.52. The Max % killing ([17]; Uterine sarcoma) was 100%, the pEC50 ([18]; Homo sapiens, SK-LMS-1) was 5.22 and the Max % killing ([18]; SK-LMS-1, Leimyosarcoma, vulva) was 100%. The pEC50 ([19]; Homo sapiens, TC-32, TC32) was 5.10, the “Erastin Sensitivity (maximum percent killing, as fraction)” value ([19]; TC 32) was 0.88 and the Max % killing ([19]; TC32, Peripheral neuroepithelioma) was 88%. The pEC50 [20] was 4.92, the Max % killing ([20]; Spindle cell sarcoma) was 88% and the pEC50 [21] was 5.40. For the same compound, the Max % killing ([21]; Uterine, mixed mesodermal tumor) was 73%, the pEC50 ([22]; Homo sapiens, U2OS) was 5.22 and the Max % killing ([22]; Osteosarcoma) was 96%. For the same compound, the pEC50 [23] was 4.77, the Max % killing ([23]; Pagetoid sarcoma) was 83% and the pEC50 ([24]; Homo sapiens, SK-ES1, SK-ES-1) was 5.15. For the same compound, the Max % killing ([24]; SK-ES-1, Ewing sarcoma) was 96% and the “Erastin Sensitivity (maximum percent killing, as fraction)” value ([24]; SKES1) was 0.96.
